Experimental data reported in patent US20250360235A1, “RADI[…] AND METHOD FOR RADIOLABELLING” (Telix Innovations SA, priority 2024, published 2025).

How the values were obtained:
Format in all cases: physicochemical
[1] = Drug product stability against radiolysis with ascorbic acid
Protocol: (§1) Table 1 to Table 5 show the results of various radiolabelling experiments on radiochemical purity and the chelation yield. The radiolabelling experiments in the tables are carried out as described in: • Example 1 for when the gallium-68 source is GE Liquid target generator and EZAG GalliaPharm generator; • Example 2 for when the gallium-68 source is IRE Galli Eo generator; • Example 3 for when the gallium-68 source is GE solid target generator;
(§2) However, the experiments were carried out with the amount of ascorbic acid as indicated in the Tables 1 to 5, and the activity as indicated in the Tables 1 to 5. Radiochemical purities were measured at various times (T0, T1, T4, T6) after the radiolabelled experiments have been conducted.
(§3) The kits of Example 1, Example 2 or Example 3, with amounts of ascorbic acid as set out in Table 7 were used in the experiments for the ascorbic acid bracketing matrix. Three strengths of [^68Ga]Ga-PSMA-11 will be tested, i.e. 50 mCi/ml, 7 mCi/ml and 1 mCi/ml. Radiochemical purity was determined at different time points (TO, T1, T4 or T6), as set out in Table 7.

[2] = Visual inspection of [68Ga]PSMA-11 solution (acceptance: colourless to slightly yellow solution, free from visible particles); set-up: key: C = Conforms to specifications
Protocol: as §1, §2, §3

[3] = Radiochemical purity by HPLC over time after radiolabelling; conditions: GE Liquid target
Protocol: as §1, §2, §3

## O=C([O-])CN(CCN(CC(=O)[O-])Cc1cc(CCC(=O)NCCCCCC(=O)NCCCC[C@H](NC(=O)N[C@@H](CCC(=O)O)C(=O)O)C(=O)O)ccc1[O-])Cc1cc(CCC(=O)O)ccc1[O-].[68Ga+3].[OH3+] [[^68Ga]PSMA-11, gallium-68 radiolabelled Glu-urea-Lys-HBED-CC (gozetotide or PSMA-11)]
[1]; 20 mg ascorbic acid, highest strength 48.3-51.9 mCi/mL (worst case), Table 8
  time for which stability is maintained: up to 6 hours
[1]; 25 mg ascorbic acid, Table 3
  time for which the formulation is stabilized: up to 4 hours
[1]; 10-50 mg ascorbic acid, 458-560 mCi starting activity, 48.3-71.1 mCi/mL, Table 2
  time for which ascorbic acid is an effective radio-stabilizer / stability maintained: up to 6 hours
[1]; 18.75-31.25 mg ascorbic acid, 5.1-5.88 mCi/mL and 0.84-2.54 mCi/mL, Tables 9 and 10
  stability: stability of the [^68Ga]PSMA-11 is maintained
[2]; bracketing ~1 mCi/mL, 18.75 mg ascorbic acid, 8.9-11.5 mCi, 0.85-1.09 mCi/mL, IRE Galli Eo, n=2, T0
  Visual Inspection: C
[2]; bracketing ~1 mCi/mL, 18.75 mg ascorbic acid, 8.9-11.5 mCi, 0.85-1.09 mCi/mL, IRE Galli Eo, n=2, T1 (1 h)
  Visual Inspection: C
[2]; bracketing ~1 mCi/mL, 25 mg ascorbic acid, 8.8-12.7 mCi, 0.84-1.21 mCi/mL, 2 × IRE Galli Eo, n=2, T0
  Visual Inspection: C
[2]; bracketing ~1 mCi/mL, 25 mg ascorbic acid, 8.8-12.7 mCi, 0.84-1.21 mCi/mL, 2 × IRE Galli Eo, n=2, T1 (1 h)
  Visual Inspection: C
[2]; bracketing ~1 mCi/mL, 31.25 mg ascorbic acid, 15.2-26.9 mCi, 1.44-2.54 mCi/mL, EZAG GalliaPharm, n=2, T0
  Visual Inspection: C
[2]; bracketing ~1 mCi/mL, 31.25 mg ascorbic acid, 15.2-26.9 mCi, 1.44-2.54 mCi/mL, EZAG GalliaPharm, n=2, T1 (1 h)
  Visual Inspection: C
[2]; bracketing ~7 mCi/mL, 18.75 mg ascorbic acid, 51.0-58.0 mCi, 5.55-6.5 mCi/mL, IRE Galli Eo, n=2, T0
  Visual Inspection: C
[2]; bracketing ~7 mCi/mL, 18.75 mg ascorbic acid, 51.0-58.0 mCi, 5.55-6.5 mCi/mL, IRE Galli Eo, n=2, T4 (4 h)
  Visual Inspection: C
[2]; bracketing ~7 mCi/mL, 25 mg ascorbic acid, 51.6-74.4 mCi, 4.56-6.92 mCi/mL, 3 × GE Liquid Target, 3 × IRE Galli Eo, 3 × EZAG GalliaPharm, n=9, T0
  Visual Inspection: C
[2]; bracketing ~7 mCi/mL, 25 mg ascorbic acid, 51.6-74.4 mCi, 4.56-6.92 mCi/mL, 3 × GE Liquid Target, 3 × IRE Galli Eo, 3 × EZAG GalliaPharm, n=9, T4 (4 h)
  Visual Inspection: C
[2]; bracketing ~7 mCi/mL, 31.25 mg ascorbic acid, 61.5-62.0 mCi, 5.85-5.88 mCi/mL, EZAG GalliaPharm, n=2, T0
  Visual Inspection: C
[2]; bracketing ~7 mCi/mL, 31.25 mg ascorbic acid, 61.5-62.0 mCi, 5.85-5.88 mCi/mL, EZAG GalliaPharm, n=2, T4 (4 h)
  Visual Inspection: C
[2]; bracketing ~50 mCi/mL, 20 mg ascorbic acid, 514-544 mCi, 48.3-51.9 mCi/mL, GE Solid Target, n=2, T0
  Visual Inspection: C
[2]; bracketing ~50 mCi/mL, 20 mg ascorbic acid, 514-544 mCi, 48.3-51.9 mCi/mL, GE Solid Target, n=2, T6 (6 h)
  Visual Inspection: C
[2]; bracketing ~50 mCi/mL, 25 mg ascorbic acid, 537-551 mCi, 50.2-51.6 mCi/mL, GE Solid Target, n=3, T0
  Visual Inspection: C
[2]; bracketing ~50 mCi/mL, 25 mg ascorbic acid, 537-551 mCi, 50.2-51.6 mCi/mL, GE Solid Target, n=3, T6 (6 h)
  Visual Inspection: C
[2]; bracketing ~50 mCi/mL, 31.25 mg ascorbic acid, 500-544 mCi, 48.1-51.7 mCi/mL, GE Solid Target, n=2, T0
  Visual Inspection: C
[2]; bracketing ~50 mCi/mL, 31.25 mg ascorbic acid, 500-544 mCi, 48.1-51.7 mCi/mL, GE Solid Target, n=2, T6 (6 h)
  Visual Inspection: C
[3]; 1 mg ascorbic acid, 58.7-71.1 mCi, 7.47-8.99 mCi/mL, average of 3, T0
  Radiochemical Purity (HPLC) Ga-68 PSMA-11 (%): 100%
[3]; 1 mg ascorbic acid, 58.7-71.1 mCi, 7.47-8.99 mCi/mL, average of 3, T4 (4 h)
  Radiochemical Purity (HPLC) Ga-68 PSMA-11 (%): 100%
[3]; 1 mg ascorbic acid, 58.7-71.1 mCi, 7.47-8.99 mCi/mL, n=3, T0
  Radiochemical Purity (HPLC) Ga-68 PSMA-11 (%): C (C = conforms to specifications)
[3]; 1 mg ascorbic acid, 58.7-71.1 mCi, 7.47-8.99 mCi/mL, n=3, T4 (4 h)
  Radiochemical Purity (HPLC) Ga-68 PSMA-11 (%): C (C = conforms to specifications)
[3]; 2.5 mg ascorbic acid, 49.9-76.9 mCi, 6.31-9.72 mCi/mL, average of 3, T0
  Radiochemical Purity (HPLC) Ga-68 PSMA-11 (%): 100%
[3]; 2.5 mg ascorbic acid, 49.9-76.9 mCi, 6.31-9.72 mCi/mL, average of 3, T4 (4 h)
  Radiochemical Purity (HPLC) Ga-68 PSMA-11 (%): 100%
[3]; 2.5 mg ascorbic acid, 49.9-76.9 mCi, 6.31-9.72 mCi/mL, n=3, T0
  Radiochemical Purity (HPLC) Ga-68 PSMA-11 (%): C (C = conforms to specifications)
